The values below come from patent US4472414A, “Spiro[indolo[1,7-ab][1,5]benzodiazepine-2,4'-piperidines]” (Hoechst-Roussel Pharmaceuticals Incorporated, priority 1983, dated 1984).

The ED50 is the midpoint of the dose-response relation.

Where a name gives a salt, the structure may show the parent alone.

The test system of this test is 2-phenyl-1,4-benzoquinone-induced writhing. Briefly: 2-phenyl-1,4-benzoquinone-induced writhing test in mice (Phenylquinone Writhing), analgesic activity. It is filed as in vivo. As to conditions: Mus musculus, sc, read-out: Inhibition of Writing ED50. An excerpt:
Compounds of Formula I of the present invention, namely, compounds of Formulas II, III and IV are useful as analgesic agents due to their ability to alleviate pain in mammals. […] Exptl. Biol. Med., 95, 729 (1957)].

As for `CC1c2cccc3c2N(CC32CCN(C)CC2)c2ccccc2N1C(=O)CCN(C)C` (stereo not shown) [7-(N,N-dimethyl-3-aminopropionyl)-1',6-dimethyl-1,2,6,7-tetrahydro-spiro[indolo[1,7-ab][1,5]benzodiazepine-2,4'-piperidine]dihydrobromide], the ED50 came out at 28.4 mg/kg. The result for `CN1CCC2(CC1)CN1c3ccccc3N=Cc3cccc2c31` [1,2-Dihydro-1'-methyl-spiro[indolo[1,7-ab][1,5]benzodiazepine-2,4'-piperidine]dihydrochloride] reads 12.1 mg/kg. The result for `CC1=Nc2ccccc2N2CC3(CCN(C)CC3)c3cccc1c32` [1,2-Dihydro-1',6-dimethyl-spiro[indolo[1,7-ab][1,5]benzodiazepine-2,4'-piperidine]dihydrochloride] reads 4.7 mg/kg; that for `CC1Nc2ccccc2N2CC3(CCN(C)CC3)c3cccc1c32` (stereo not shown) [1',6-Dimethyl-1,2,6,7-tetrahydro-spiro[indolo[1,7-ab][1,5]benzodiazepine-2,4'-piperidine]dihydrochloride], 9.7 mg/kg.
